Columns and labels:
[1] = Retention time of the compound by isocratic elution based HPLC method; format: physicochemical
[2] = Retention time of the compound by gradient elution based HPLC method; format: physicochemical
[3] = tested on: Staphylococcus epidermidis; assay: microbe, parasite or virus in culture; format: functional; details: H 6966/08, 48 h
Description: Antibacterial activity against Staphylococcus epidermidis H 6966/08 after 48 hrs by microdilution broth method

Enterococcus sp. [4] = assay: microbe, parasite or virus in culture; format: functional; details: J 14365/08, 48 h
Description: Antibacterial activity against Enterococcus sp. J 14365/08 after 48 hrs by microdilution broth method

Klebsiella pneumoniae [5] = assay: microbe, parasite or virus in culture; format: functional; details: D 11750/08, 48 h
Description: Antibacterial activity against Klebsiella pneumoniae D 11750/08 after 48 hrs by microdilution broth method

Klebsiella pneumoniae [6] = assay: microbe, parasite or virus in culture; format: functional; details: D 11750/08, 24 h
Description: Antibacterial activity against Klebsiella pneumoniae D 11750/08 after 24 hrs by microdilution broth method

Enterococcus sp. [7] = assay: Bactericidal activity against Enterococcus sp. J 14365/08 after 48 hrs by microdilution broth method; format: functional; details: J 14365/08, 48 h, read-out: MBC>99.9
[8] = tested on: Trichophyton mentagrophytes; assay: Fungicidal activity against Trichophyton mentagrophytes 445 after 120 hrs by modified standard CSLI M27-A2 method; format: functional; details: Trichophyton mentagrophytes, 445, 120 h
Pseudomonas aeruginosa [9] = assay: microbe, parasite or virus in culture; format: functional; details: CCM 1961, 120 h
Description: Antibacterial activity against Pseudomonas aeruginosa CCM 1961 after 120 hrs by microdilution broth method

Klebsiella pneumoniae [10] = assay: microbe, parasite or virus in culture; format: functional; details: J 14368/08, 24 h
Description: Antibacterial activity against Klebsiella pneumoniae J 14368/08 after 24 hrs by microdilution broth method

Staphylococcus aureus [11] = assay: Bactericidal activity against Staphylococcus aureus CCM 4516/08 after 48 hrs by microdilution broth method; format: functional; details: CCM 4516/08, 48 h, read-out: MBC>99.9
[12] = tested on: Trichophyton mentagrophytes; assay: microbe, parasite or virus in culture; format: functional; details: Trichophyton mentagrophytes, 445, 120 h
Description: Antifungal activity against Trichophyton mentagrophytes 445 after 120 hrs by modified standard CSLI M27-A2 method

Pseudomonas aeruginosa [13] = assay: Bactericidal activity against Pseudomonas aeruginosa CCM 1961 after 120 hrs by microdilution broth method; format: functional; details: CCM 1961, 120 h, read-out: MBC>99.9
Staphylococcus aureus [14] = assay: Bactericidal activity against Staphylococcus aureus H 5996/08 after 48 hrs by microdilution broth method; format: functional; details: H 5996/08, 48 h, read-out: MBC>99.9
Lichtheimia corymbifera [15] = assay: microbe, parasite or virus in culture; format: functional; details: Lichtheimia corymbifera, 272, 48 h
Description: Antifungal activity against Absidia corymbifera 272 after 48 hrs by modified standard CSLI M27-A2 method

Staphylococcus aureus [16] = assay: microbe, parasite or virus in culture; format: functional; details: H 5996/08, 24 h
Description: Antibacterial activity against Staphylococcus aureus H 5996/08 after 24 hrs by microdilution broth method

Nakaseomyces glabratus [17] = assay: Fungicidal activity against Candida glabrata 20/I after 48 hrs by modified standard CSLI M27-A2 method; format: functional
Klebsiella pneumoniae [18] = assay: Bactericidal activity against Klebsiella pneumoniae D 11750/08 after 24 hrs by microdilution broth method; format: functional; details: D 11750/08, 24 h, read-out: MBC>99.9
[19] = tested on: Trichophyton mentagrophytes; assay: microbe, parasite or virus in culture; format: functional; details: Trichophyton mentagrophytes, 445, 72 h
Description: Antifungal activity against Trichophyton mentagrophytes 445 after 72 hrs by modified standard CSLI M27-A2 method

Candida tropicalis [20] = assay: microbe, parasite or virus in culture; format: functional; details: Candida tropicalis, 156, 48 h
Description: Antifungal activity against Candida tropicalis 156 after 48 hrs by modified standard CSLI M27-A2 method

Enterococcus sp. [21] = assay: microbe, parasite or virus in culture; format: functional; details: J 14365/08, 24 h
Description: Antibacterial activity against Enterococcus sp. J 14365/08 after 24 hrs by microdilution broth method

Candida tropicalis [22] = assay: microbe, parasite or virus in culture; format: functional; details: Candida tropicalis, 156, 24 h
Description: Antifungal activity against Candida tropicalis 156 after 24 hrs by modified standard CSLI M27-A2 method

Candida albicans [23] = assay: Fungicidal activity against Candida albicans ATCC 44859 after 48 hrs by modified standard CSLI M27-A2 method; format: functional; details: ATCC 44859, 48 h
Staphylococcus aureus [24] = assay: microbe, parasite or virus in culture; format: functional; details: CCM 4516/08, 48 h
Description: Antibacterial activity against Staphylococcus aureus CCM 4516/08 after 48 hrs by microdilution broth method

Escherichia coli [25] = assay: microbe, parasite or virus in culture; format: functional; details: CCM 4517, 48 h
Description: Antibacterial activity against Escherichia coli CCM 4517 after 48 hrs by microdilution broth method

Aspergillus fumigatus [26] = assay: microbe, parasite or virus in culture; format: functional; details: Aspergillus fumigatus, 231, 48 h
Description: Antifungal activity against Aspergillus fumigatus 231 after 48 hrs by modified standard CSLI M27-A2 method

Pichia kudriavzevii [27] = assay: Antifungal activity against Candida krusei E28 after 48 hrs by modified standard CSLI M27-A2 method; format: functional; details: E28, 48 h
Nakaseomyces glabratus [28] = assay: Antifungal activity against Candida glabrata 20/I after 24 hrs by modified standard CSLI M27-A2 method; format: functional
Pichia kudriavzevii [29] = assay: Antifungal activity against Candida krusei E28 after 24 hrs by modified standard CSLI M27-A2 method; format: functional; details: E28, 24 h
Escherichia coli [30] = assay: Bactericidal activity against Escherichia coli CCM 4517 after 48 hrs by microdilution broth method; format: functional; details: CCM 4517, 48 h, read-out: MBC>99.9
Lichtheimia corymbifera [31] = assay: Fungicidal activity against Absidia corymbifera 272 after 48 hrs by modified standard CSLI M27-A2 method; format: functional; details: Lichtheimia corymbifera, 272, 48 h
Pichia kudriavzevii [32] = assay: Fungicidal activity against Candida krusei E28 after 48 hrs by modified standard CSLI M27-A2 method; format: functional; details: E28, 48 h
Staphylococcus aureus [33] = assay: microbe, parasite or virus in culture; format: functional; details: H 5996/08, 48 h
Description: Antibacterial activity against Staphylococcus aureus H 5996/08 after 48 hrs by microdilution broth method

Aspergillus fumigatus [34] = assay: Fungicidal activity against Aspergillus fumigatus 231 after 48 hrs by modified standard CSLI M27-A2 method; format: functional; details: Aspergillus fumigatus, 231, 48 h
Aspergillus fumigatus [35] = assay: microbe, parasite or virus in culture; format: functional; details: Aspergillus fumigatus, 231, 24 h
Description: Antifungal activity against Aspergillus fumigatus 231 after 24 hrs by modified standard CSLI M27-A2 method

Trichosporon asahii [36] = assay: microbe, parasite or virus in culture; format: functional; details: Trichosporon asahii, 1188, 48 h
Description: Antifungal activity against Trichosporon asahii 1188 after 48 hrs by modified standard CSLI M27-A2 method

Trichosporon asahii [37] = assay: Fungicidal activity against Trichosporon asahii 1188 after 48 hrs by modified standard CSLI M27-A2 method; format: functional; details: Trichosporon asahii, 1188, 48 h
Candida albicans [38] = assay: microbe, parasite or virus in culture; format: functional; details: ATCC 44859, 48 h
Description: Antifungal activity against Candida albicans ATCC 44859 after 48 hrs by modified standard CSLI M27-A2 method

Nakaseomyces glabratus [39] = assay: Antifungal activity against Candida glabrata 20/I after 48 hrs by modified standard CSLI M27-A2 method; format: functional
[40] = Cytotoxicity against CHOK1 cells after 24 hrs by MTT assay; format: ADME, cell-based; details: Cricetulus griseus, CHO-K1, 24 h
Candida tropicalis [41] = assay: Fungicidal activity against Candida tropicalis 156 after 48 hrs by modified standard CSLI M27-A2 method; format: functional; details: Candida tropicalis, 156, 48 h
Pseudomonas aeruginosa [42] = assay: microbe, parasite or virus in culture; format: functional; details: CCM 1961, 72 h
Description: Antibacterial activity against Pseudomonas aeruginosa CCM 1961 after 72 hrs by microdilution broth method

Staphylococcus aureus [43] = assay: microbe, parasite or virus in culture; format: functional; details: CCM 4516/08, 24 h
Description: Antibacterial activity against Staphylococcus aureus CCM 4516/08 after 24 hrs by microdilution broth method

Lichtheimia corymbifera [44] = assay: microbe, parasite or virus in culture; format: functional; details: Lichtheimia corymbifera, 272, 24 h
Description: Antifungal activity against Absidia corymbifera 272 after 24 hrs by modified standard CSLI M27-A2 method

Klebsiella pneumoniae [45] = assay: Bactericidal activity against Klebsiella pneumoniae J 14368/08 after 48 hrs by microdilution broth method; format: functional; details: J 14368/08, 48 h, read-out: MBC>99.9
[46] = tested on: Staphylococcus epidermidis; assay: Bactericidal activity against Staphylococcus epidermidis H 6966/08 after 48 hrs by microdilution broth method; format: functional; details: H 6966/08, 48 h, read-out: MBC>99.9
Trichosporon asahii [47] = assay: microbe, parasite or virus in culture; format: functional; details: Trichosporon asahii, 1188, 24 h
Description: Antifungal activity against Trichosporon asahii 1188 after 24 hrs by modified standard CSLI M27-A2 method

Klebsiella pneumoniae [48] = assay: microbe, parasite or virus in culture; format: functional; details: J 14368/08, 48 h
Description: Antibacterial activity against Klebsiella pneumoniae J 14368/08 after 48 hrs by microdilution broth method

Candida albicans [49] = assay: microbe, parasite or virus in culture; format: functional; details: ATCC 44859, 24 h
Description: Antifungal activity against Candida albicans ATCC 44859 after 24 hrs by modified standard CSLI M27-A2 method

[50] = tested on: Staphylococcus epidermidis; assay: microbe, parasite or virus in culture; format: functional; details: H 6966/08, 24 h
Description: Antibacterial activity against Staphylococcus epidermidis H 6966/08 after 24 hrs by microdilution broth method

Escherichia coli [51] = assay: microbe, parasite or virus in culture; format: functional; details: CCM 4517, 24 h
Description: Antibacterial activity against Escherichia coli CCM 4517 after 24 hrs by microdilution broth method

Work on `CCCCCCCCCC[n+]1cccc2cc(O)ccc21.[Br-]` yielded a Retention_time [1] of 0.65 min and a Retention_time [2] of 8.64 min.
Compound `CCCCCCCCCCCC[n+]1cccc2cc(O)ccc21.[Br-]` has an MIC95 [3] of 0.49 µM, an MIC95 (Enterococcus sp. [4]) of 1.95 µM and an MIC95 (Klebsiella pneumoniae [5]) of 1.95 µM. The MIC95 (Klebsiella pneumoniae [6]) was 1.95 µM, the MBC (Enterococcus sp. [7]) was 1.95 µM and the MFC [8] was 0.98 µM. For the same compound, the MIC95 (Pseudomonas aeruginosa [9]) was 7.81 µM, the MIC95 (Klebsiella pneumoniae [10]) was 3.91 µM and the MBC (Staphylococcus aureus [11]) was 7.81 µM. It also gave a Retention_time [1] of 0.95 min, an MIC [12] of 0.98 µM and an MBC (Pseudomonas aeruginosa [13]) of 7.81 µM. For the same compound, the MBC (Staphylococcus aureus [14]) was 7.81 µM, the MIC (Lichtheimia corymbifera [15]) was 15.6 µM and the MIC95 (Staphylococcus aureus [16]) was 0.49 µM. It also gave an MFC (Nakaseomyces glabratus [17]) of 1.95 µM, an MBC (Klebsiella pneumoniae [18]) of 1.95 µM and an MIC [19] of 0.49 µM. It also gave an MIC (Candida tropicalis [20]) of 0.98 µM, an MIC95 (Enterococcus sp. [21]) of 0.98 µM and an MIC (Candida tropicalis [22]) of 0.98 µM. For the same compound, the MFC (Candida albicans [23]) was 1.95 µM, the MIC95 (Staphylococcus aureus [24]) was 1.95 µM and the MIC95 (Escherichia coli [25]) was 1.95 µM. The MIC (Aspergillus fumigatus [26]) was 7.81 µM, the MIC (Pichia kudriavzevii [27]) was 0.98 µM and the MIC (Nakaseomyces glabratus [28]) was 0.98 µM. The MIC (Pichia kudriavzevii [29]) was 0.98 µM, the MBC (Escherichia coli [30]) was 1.95 µM and the MFC (Lichtheimia corymbifera [31]) was 15.6 µM. For the same compound, the MFC (Pichia kudriavzevii [32]) was 1.95 µM, the MIC95 (Staphylococcus aureus [33]) was 1.95 µM and the MFC (Aspergillus fumigatus [34]) was 7.81 µM. For the same compound, the MIC (Aspergillus fumigatus [35]) was 1.95 µM, the MIC (Trichosporon asahii [36]) was 1.95 µM and the MFC (Trichosporon asahii [37]) was 1.95 µM. It also gave an MIC (Candida albicans [38]) of 1.95 µM, an MIC (Nakaseomyces glabratus [39]) of 1.95 µM and an IC50 [40] of 50 µM. For the same compound, the MFC (Candida tropicalis [41]) was 1.95 µM, the MIC95 (Pseudomonas aeruginosa [42]) was 7.81 µM and the MIC95 (Staphylococcus aureus [43]) was 0.49 µM. The MIC (Lichtheimia corymbifera [44]) was 3.91 µM, the MBC (Klebsiella pneumoniae [45]) was 3.91 µM and the Retention_time [2] was 9.34 min. It also gave an MBC [46] of 0.49 µM, an MIC (Trichosporon asahii [47]) of 0.98 µM and an MIC95 (Klebsiella pneumoniae [48]) of 3.91 µM. The MIC (Candida albicans [49]) was 0.98 µM, the MIC95 [50] was 0.49 µM and the MIC95 (Escherichia coli [51]) was 1.95 µM.
`CCCCCCCCCCCCCCCC[N+](C)(C)Cc1ccccc1` gave an MIC95 [3] of 0.49 µM, an MIC95 (Enterococcus sp. [4]) of 1.95 µM and an MIC95 (Klebsiella pneumoniae [5]) of 7.81 µM. It also gave an MIC95 (Klebsiella pneumoniae [6]) of 7.81 µM, an MBC (Enterococcus sp. [7]) of 3.91 µM and an MFC [8] of 62.5 µM. The MIC95 (Pseudomonas aeruginosa [9]) was 31.2 µM, the MIC95 (Klebsiella pneumoniae [10]) was 7.81 µM and the MBC (Staphylococcus aureus [11]) was 3.91 µM. The MIC [12] was 7.81 µM, the MBC (Pseudomonas aeruginosa [13]) was 125 µM and the MBC (Staphylococcus aureus [14]) was 3.91 µM. The MIC (Lichtheimia corymbifera [15]) was 7.81 µM, the MIC95 (Staphylococcus aureus [16]) was 1.95 µM and the MFC (Nakaseomyces glabratus [17]) was 62.5 µM. It also gave an MBC (Klebsiella pneumoniae [18]) of 7.81 µM, an MIC [19] of 7.81 µM and an MIC (Candida tropicalis [20]) of 7.81 µM. The MIC95 (Enterococcus sp. [21]) was 1.95 µM, the MIC (Candida tropicalis [22]) was 3.91 µM and the MFC (Candida albicans [23]) was 7.81 µM. The MIC95 (Staphylococcus aureus [24]) was 0.98 µM, the MIC95 (Escherichia coli [25]) was 7.81 µM and the MIC (Aspergillus fumigatus [26]) was 7.81 µM. For the same compound, the MIC (Pichia kudriavzevii [27]) was 1.95 µM, the MIC (Nakaseomyces glabratus [28]) was 1.95 µM and the MIC (Pichia kudriavzevii [29]) was 1.95 µM. For the same compound, the MBC (Escherichia coli [30]) was 7.81 µM, the MFC (Lichtheimia corymbifera [31]) was 62.5 µM and the MFC (Pichia kudriavzevii [32]) was 1.95 µM. For the same compound, the MIC95 (Staphylococcus aureus [33]) was 1.95 µM, the MFC (Aspergillus fumigatus [34]) was 62.5 µM and the MIC (Aspergillus fumigatus [35]) was 7.81 µM. For the same compound, the MIC (Trichosporon asahii [36]) was 7.81 µM, the MFC (Trichosporon asahii [37]) was 62.5 µM and the MIC (Candida albicans [38]) was 7.81 µM. For the same compound, the MIC (Nakaseomyces glabratus [39]) was 3.91 µM, the IC50 [40] was 15 µM and the MFC (Candida tropicalis [41]) was 7.81 µM. It also gave an MIC95 (Pseudomonas aeruginosa [42]) of 15.6 µM, an MIC95 (Staphylococcus aureus [43]) of 0.98 µM and an MIC (Lichtheimia corymbifera [44]) of 7.81 µM. The MBC (Klebsiella pneumoniae [45]) was 7.81 µM, the MBC [46] was 3.91 µM and the MIC (Trichosporon asahii [47]) was 7.81 µM. For the same compound, the MIC95 (Klebsiella pneumoniae [48]) was 7.81 µM, the MIC (Candida albicans [49]) was 3.91 µM and the MIC95 [50] was 0.49 µM. It also gave an MIC95 (Escherichia coli [51]) of 7.81 µM.
